Test results from patent US20250122174A1 (Shenzhen Yuanli Shenwan Innovative Medicine Co., Ltd., priority 2022, published 2025).
Structures can show the parent of a compound that is named as a salt.

These compounds were tested against HPK1 (Homo sapiens (Human), UniProt Q92918) (assay: HPK1 Inhibition Assay (ADP-Glo kinase assay)). Conditions: ATP 10 μM.
Assay type: biochemical
In short: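 ADP-Glo luminescence read-out after 1 h room-temperature kinase reaction with 10 μM ATP and 0.1 μg/ml MBP. Recombinant human HPK1 at 7.5 ng/μl; buffer 40 mM Tris pH 7.5, 20 mM MgCl2. Compounds serially diluted 5-fold over 10 points from 10 mM DMSO stock.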

Chain of HPK1 (Q92918 1-346 limits assumed): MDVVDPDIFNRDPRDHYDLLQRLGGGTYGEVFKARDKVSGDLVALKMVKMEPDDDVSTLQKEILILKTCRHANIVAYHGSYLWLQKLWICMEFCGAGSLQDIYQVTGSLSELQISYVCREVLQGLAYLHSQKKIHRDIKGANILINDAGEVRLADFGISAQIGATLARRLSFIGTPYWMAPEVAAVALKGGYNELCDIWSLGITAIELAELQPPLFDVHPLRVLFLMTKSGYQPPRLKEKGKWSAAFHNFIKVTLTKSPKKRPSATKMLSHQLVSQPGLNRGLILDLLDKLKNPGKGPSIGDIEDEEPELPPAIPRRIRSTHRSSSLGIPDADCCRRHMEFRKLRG

| SMILES | IC50 [µM] |
| --- | --- |
| CC(C)n1ncc2c(N3CCC[C@@H]3CN)c(NC(=O)c3ccc(=O)n(-c4c(F)cccc4F)n3)ccc21 [Example 181, (R)-N-(4-(2-(aminomethyl)pyrrolidin-1-yl)-1-isopropyl-1H-indazol-5-yl)-1-(2,6-difluorophenyl)-6-oxo-1,6-dihydropyridazine-3-carboxamide] | < 0.1 |
| Cc1nc2c(N3CC4CNCC4C3)c(NC(=O)c3ccc(=O)n(-c4c(F)cccc4F)n3)ccc2n1C (stereo not drawn) [Example 79, 1-(2,6-difluorophenyl)-N-(4-(hexahydropyrrolo[3,4-c]pyrrol-2(1H)-yl)-1,2-dimethyl-1H-benzo[d]imidazol-5-yl)-6-oxo-1,6-dihydropyridazine-3-carboxamide] | < 0.1 |
| CC(C)c1nc2c(N3CC[C@@H](N)C3)c(NC(=O)c3ccc(=O)n(-c4c(F)cccc4F)n3)ccc2n1C [Example 109, (R)—N-(4-(3-aminopyrrolidin-1-yl)-2-isopropyl-1-methyl-1H-benzo[d]imidazol-5-yl)-1-(2,6-difluorophenyl)-6-oxo-1,6-dihydropyridazine-3-carboxamide] | < 0.1 |
| COCCn1c(C)nc2c(N3CCC[C@H]3CN)c(NC(=O)c3ccnn(-c4c(F)cccc4F)c3=O)ccc21 [Example 45] | < 0.1 |
| COc1cccc(F)c1-c1cccc(C(=O)Nc2cc(F)c3nn(C)cc3c2N2CC[C@H](N)C2)[n+]1[O-] [Example 59, 2-((4-((S)-3-aminopyrrolidin-1-yl)-7-fluoro-2-methyl-2H-indazol-5-yl)carbamoyl)-6-(2-fluoro-6-methoxyphenyl)pyridine 1-oxide] | < 0.1 |
| Cc1nc2c(N3CC[C@H](N)C3)c(NC(=O)c3ccnn(-c4c(F)cccc4F)c3=O)ccc2n1C1CCOCC1 [Example 47, (S)—N-(4-(3-aminopyrrolidin-1-yl)-2-methyl-1-(tetrahydro-2H-pyran-4-yl)-1H-benzo[d]imidazol-5-yl)-2-(2,6-difluorophenyl)-3-oxo-2,3-dihydropyridazine-4-carboxamide trifluoroacetate] | 0.1 to 1 |
| Cn1c(C2(C(F)(F)F)CC2)nc2c(N3C[C@H](N)C(C)(C)C3)c(NC(=O)c3ccc(=O)n(-c4c(F)cccc4F)n3)ccc21 [Example 147, (R)-N-(4-(4-amino-3,3-dimethylpyrrolidin-1-yl)-1-methyl-2-(1-(trifluoromethyl)cyclopropyl)-1H-benzo[d]imidazol-5-yl)-1-(2,6-difluorophenyl)-6-oxo-1,6-dihydropyridazine-3-carboxamide] | < 0.1 |
| CC(C)n1nc(Cl)c2c(N3C[C@@H](C)[C@@H](N)C3)c(NC(=O)c3ccc(=O)n(-c4c(F)cccc4F)n3)ccc21 [Example 191, N-(4-((3R,4R)-3-amino-4-methylpyrrolidin-1-yl)-3-chloro-1-isopropyl-1H-indazol-5-yl)-1-(2,6-difluorophenyl)-6-oxo-1,6-dihydropyridazine-3-carboxamide] | < 0.1 |
| Cc1nc2c(N3CCC4(CC3)CNC4)c(NC(=O)c3ccc(=O)n(-c4c(F)cccc4F)n3)ccc2n1C [Example 78, 1-(2,6-difluorophenyl)-N-(1,2-dimethyl-4-(2,7-diazaspiro[3.5]nonan-7-yl)-1H-benzo[d]imidazol-5-yl)-6-oxo-1,6-dihydropyridazine-3-carboxamide] | < 0.1 |
| CSCc1nc2c(N3CC[C@@H](N)C3)c(NC(=O)c3ccc(=O)n(-c4c(F)cccc4F)n3)ccc2n1C [Example 162, (R)-N-(4-(3-aminopyrrolidin-1-yl)-1-methyl-2-((methylthio)methyl)-1H-benzo[d]imidazol-5-yl)-1-(2,6-difluorophenyl)-6-oxo-1,6-dihydropyridazine-3-carboxamide] | < 0.1 |
| CC(C)n1cc2c(N3CCC[C@@H]3CN)c(NC(=O)c3ccc(=O)n(-c4c(F)cccc4F)n3)ccc2n1 [Example 225, (R)-N-(4-(2-(aminomethyl)pyrrolidin-1-yl)-2-isopropyl-2H-indazol-5-yl)-1-(2,6-difluorophenyl)-6-oxo-1,6-dihydropyridazine-3-carboxamide] | < 0.1 |
| CC(C)c1nc2c(N3CC[C@H](CN)C3)c(NC(=O)c3ccc(=O)n(-c4c(F)cccc4F)n3)ccc2n1C [Example 115, (R)-N-(4-(3-(aminomethyl)pyrrolidin-1-yl)-2-isopropyl-1-methyl-1H-benzo[d]imidazol-5-yl)-1-(2,6-difluorophenyl)-6-oxo-1,6-dihydropyridazine-3-carboxamide] | < 0.1 |
| COc1cccc(F)c1-c1cccc(C(=O)Nc2ccc3c(nc(C)n3C)c2N2CCC[C@H]2CN)[n+]1[O-] [Example 61, 2-((4-((S)-2-(aminomethyl)pyrrolidin-1-yl)-1,2-dimethyl-1H-benzo[d]imidazol-5-yl)carbamoyl)-6-(2-fluoro-6-methoxyphenyl)pyridine 1-oxide] | < 0.1 |
| CC(C)n1cc2c(N3CC[C@@H](N)C3)c(NC(=O)c3ccc(=O)n(-c4c(F)cccc4F)n3)ccc2n1 [Example 114, (R)-N-(4-(3-aminopyrrolidin-1-yl)-2-isopropyl-2H-indazol-5-yl)-1-(2,6-difluorophenyl)-6-oxo-1,6-dihydropyridazine-3-carboxamide] | < 0.1 |
| CC(C)c1nc2c(N3CC[C@@H](NCC(C)(C)O)C3)c(NC(=O)c3ccc(=O)n(-c4c(F)cccc4F)n3)ccc2n1C [Example 129, (R)-1-(2,6-difluorophenyl)-N-(4-(3-((2-hydroxy-2-methylpropyl)amino)pyrrolidin-1-yl)-2-isopropyl-1-methyl-1H-benzo[d]imidazol-5-yl)-6-oxo-1,6-dihydropyridazine-3-carboxamide] | < 0.1 |

Now from value to compound:

| IC50 [µM] | SMILES |
| --- | --- |
| < 0.1 | C[C@@H]1CN(c2c(NC(=O)c3ccc(=O)n(-c4c(F)cccc4F)n3)ccc3c2cnn3C2CCCCC2)C[C@@H]1N [Example 297, N-(4-((3R,4R)-3-amino-4-methylpyrrolidin-1-yl)-1-cyclohexyl-1H-indazol-5-yl)-1-(2,6-difluorophenyl)-6-oxo-1,6-dihydropyridazine-3-carboxamide] |
| < 0.1 | [2H]C([2H])([2H])C(n1ncc2c(N3C[C@@H](N)C(C)(C)C3)c(NC(=O)c3ccc(=O)n(-c4c(F)cccc4F)n3)ccc21)C([2H])([2H])[2H] [Example 280, (S)-N-(4-(4-amino-3,3-dimethylpyrrolidin-1-yl)-1-(propan-2-yl-1,1,1,3,3,3-d6)-1H-indazol-5-yl)-1-(2,6-difluorophenyl)-6-oxo-1,6-dihydropyridazine-3-carboxamide] |
| < 0.1 | CC(C)n1cc2c(N3C[C@@H](N)C(C)(C)C3)c(NC(=O)c3ccc(=O)n(-c4c(F)cccc4F)n3)ccc2n1 [Example 228, (S)-N-(4-(4-amino-3,3-dimethylpyrrolidin-1-yl)-2-isopropyl-2H-indazol-5-yl)-1-(2,6-difluorophenyl)-6-oxo-1,6-dihydropyridazine-3-carboxamide] |
| < 0.1 | [2H]C([2H])([2H])C(n1ncc2c(N3C[C@H](N)C4(CC4)C3)c(NC(=O)c3ccc(=O)n(-c4c(F)cccc4F)n3)ccc21)C([2H])([2H])[2H] [Example 277, (R)-N-(4-(7-amino-5-azaspiro[2.4]heptan-5-yl)-1-(propan-2-yl-1,1,1,3,3,3-d6)-1H-indazol-5-yl)-1-(2,6-difluorophenyl)-6-oxo-1,6-dihydropyridazine-3-carboxamide] |
| < 0.1 | N#Cc1ccncc1-c1ccc(NC(=O)c2ccc(=O)n(-c3c(F)cccc3F)n2)c(N2C[C@@H](N)C[C@H]2CO)c1 [Example 347, N-(2-((2S,4S)-4-amino-2-(hydroxymethyl)pyrrolidin-1-yl)-4-(4-cyanopyridin-3-yl)phenyl)-1-(2,6-difluorophenyl)-6-oxo-1,6-dihydropyridazine-3-carboxamide] |
| < 0.1 | N[C@H]1CN(c2c(NC(=O)c3ccc(=O)n(-c4c(F)cccc4F)n3)ccc3c2cnn3[C@H]2CCCOC2)CC12CC2 [Example 271, N-(4-((R)-7-amino-5-azaspiro[2.4]heptan-5-yl)-1-((S)-tetrahydro-2H-pyran-3-yl)-1H-indazol-5-yl)-1-(2,6-difluorophenyl)-6-oxo-1,6-dihydropyridazine-3-carboxamide] |
| < 0.1 | C[C@H]1CN(c2c(NC(=O)c3ccc(=O)n(-c4c(F)cccc4F)n3)ccc3c2cnn3C2CC2)C[C@@H]1N [Example 299, N-(4-((3R,4S)-3-amino-4-methylpyrrolidin-1-yl)-1-cyclopropyl-1H-indazol-5-yl)-1-(2,6-difluorophenyl)-6-oxo-1,6-dihydropyridazine-3-carboxamide] |
| < 0.1 | N#Cc1ccncc1-c1ccc(NC(=O)c2ccc(=O)n(-c3c(F)cccc3F)n2)c(N2CCC(N)(CO)CC2)c1 [Example 352, N-(2-(4-amino-4-(hydroxymethyl)piperidin-1-yl)-4-(4-cyanopyridin-3-yl)phenyl)-1-(2,6-difluorophenyl)-6-oxo-1,6-dihydropyridazine-3-carboxamide] |
| < 0.1 | N#Cc1ccncc1-c1ccc(NC(=O)c2ccc(=O)n(-c3c(F)cccc3F)n2)c(N2CC[C@](N)(C(F)(F)F)C2)c1 (single isomer, unassigned) [Example 359] |
| < 0.1 | CCn1ncc2c(N3CC[C@@H](N)C3)c(NC(=O)c3ccc(=O)n(-c4c(F)cccc4F)n3)ccc21 [Example 292, (R)-N-(4-(3-aminopyrrolidin-1-yl)-1-ethyl-1H-indazol-5-yl)-1-(2,6-difluorophenyl)-6-oxo-1,6-dihydropyridazine-3-carboxamide] |
| < 0.1 | C[C@@H]1CN(c2c(NC(=O)c3ccc(=O)n(-c4c(F)cccc4F)n3)ccc3c2cnn3CC(F)(F)F)C[C@@H]1N [Example 291, N-(4-((3R,4R)-3-amino-4-methylpyrrolidin-1-yl)-1-(2,2,2-trifluoroethyl)-1H-indazol-5-yl)-1-(2,6-difluorophenyl)-6-oxo-1,6-dihydropyridazine-3-carboxamide] |
| < 0.1 | CC(C)(C)n1cc2c(N3C[C@H](N)C4(CC4)C3)c(NC(=O)c3ccc(=O)n(-c4c(F)cccc4F)n3)ccc2n1 [Example 235, (R)-N-(4-(7-amino-5-azaspiro[2.4]heptan-5-yl)-2-(tert-butyl)-2H-indazol-5-yl)-1-(2,6-difluorophenyl)-6-oxo-1,6-dihydropyridazine-3-carboxamide] |
